This note sets out measurements from patent publication US20090221095A1, “Colorimetric Screening of DNA Binding/Intercalating Agents with Gold Nanoparticle Probes” (NORTHWESTERN UNIVERSITY, priority 2005, published 2009).

For test [1], the system named is triplex DNA (DNA-1, DNA-2, DNA-3). The test can be described thus: UV melting (260 nm) of unmodified triplex DNA-1, DNA-2, DNA-3 (no nanoparticles). In kind it is binding. Particulars: solution-phase unmodified DNA, 1 μM each strand, 6 μM binder, 0.5 M NaCl 10 mM PBS. On the procedure:
To compare the results from the previous examples with more traditional screening techniques, all eight intercalators were screened, plus a control, by monitoring UV absorbance melting curves (260 nm) of unmodified DNA-1, DNA-2, and DNA-3 (1 μM each), with each intercalator (10 μM), (DNA-1; 3′ TTCTTCTTTTTT CT-5′. DNA-2: 5′-TTCTTCTTTTTTCT-3′, DNA-3: 5′-AAGAAGAAAAAA-3′). (FIG. 2B). The melting experiment performed in the presence of BePl has two melting transitions. The first Tm at 34.8° C. is associated with the denaturation of the triplex structure and the second Tm at 61.4° C. is representative of the corresponding duplex.
To determine the Tm of the duplex DNA in the presence of DNA binders, 2 μM duplex DNA and 5 μM DNA binder were combined in 0.3 M NaCl 10 mM PBS. To determine the Tm of the triplex DNA in the presence of DNA binders, 1 μM of each strand and 6 μM of each DNA binder were combined in 0.5 M NaCl 10 mM PBS. UV-vis melting curves were measured on a CARRY 500 spectrophotometer equipped with a circulating bath. The melting process was monitored by measuring the change in extinction at 260 nm. The solutions were stirred continuously with a magnetic stir bar as the solution temperature was increased at a rate of 0.5° C./min. The first derivative generated from the melting curves was used to determine the Tm.
A melting transition associated with the triple helix was found only for experiments performed in the presence of BePI (34.8° C.) and CORA (17.1° C.) where BePI is determined to be the stronger binder. This is in agreement with the results determined by the chip-based scanometric method described above.

For test [2], the system named is triplex DNA on chip surface. The test can be described thus: Chip-based scanometric detection of triplex DNA binders (silver enhancement). In kind it is binding. Particulars: 0.3 M NaCl, binder 5 μM, DNA-3 150 nM. How it is done:
For scanometric detection of duplex or triplex DNA binding molecules, Au nanoparticles (1 nM) and DNA binding molecules (5 μM) in 10 mM PBS buffer of varying NaCl concentrations were added to the microarray slide under hybridization wells (Nanosphere, Inc.). For detection of triplex binders, 150 nM DNA-3 was added. DNA hybridization proceeded for 30 min (for duplex DNA binders) or 1 h (for triplex DNA binders) in a humidity chamber. After hybridization, the slides were washed three times with 0.5 M NaNO3 containing 0.02% Tween 20. The arrays were dried using a benchtop spinner. Silver enhancement solution (Nanosphere, Inc.) was added for Au-NP signal amplification (1 mL total volume/array, 1.5-min development time for duplex DNA binding molecules and 3 min for triplex binding molecules). The reaction was terminated by washing the slides with NANOpure® water and spin-drying. Light-scattering images from the silver-enhanced chips were recorded using the high-resolution Verigene ID system (Nanosphere, Inc.).
Capture strands of synthetic oligonucleotides are patterned on a glass chip using a microarrayer. The DNA chip is then exposed to a solution containing three components: 1) complementary DNA (no nanoparticles), 2) DNA functionalized Au nanoparticles (DNA is non-complementary to the arrayed DNA) and 3) DNA binders, Scheme 4. The complementary solution-phase DNA, called DNA-3 in Scheme 2, hybridizes to the DNA on the chip surface and forms a duplex. The Au nanoparticle-bound DNA has the correct sequence to form a triplex with the surface bound duplex through sequence-specific Hoogsteen, or reverse Hoogsteen, base pairing. The triplex structure is relatively unstable at room temperature and will only form in the presence of triplex DNA binding molecules. The presence of the triplex DNA binding molecules increase the stability of the triplex, immobilizing the Au nanoparticles on the chip surface. The chip was then exposed to silver enhancement solution for further signal enhancement and then imaged using a Verigene ID scanner.
The assay was performed in the presence of two triplex binders, coralyn (CORA) and benzo[e]pyridoindole (BePI), seven duplex DNA binders, 4′,6-diamidino-2-phenylindole (DAPI), ellipticine (EIPT), amsacrine (AMSA), daunorubicin (DNR), anthraquinone-2-carboxylic acid (AQ2A), ethidium bromide (EB), and 9-aminoacridine (9-AA))., and one control (no DNA-3). Similar to the DNA duplex, the formation of the DNA triplex is a reversible process which is affected by both temperature and salt concentration. However, compared to the duplex, the stability of the triplex is much more sensitive to salt concentration. Therefore, to determine the relative binding strength of the triplex DNA binders, the assay was performed at varying salt concentrations, FIG. 7. At 0.3 M NaCl, both the strong (BePI) and weaker (CORA) triplex binders show signal.

Consider `COc1cc2cc3c4cc(OC)c(OC)cc4cc[n+]3c(C)c2cc1OC` [CORA, coralyn], for which, in test [1] (duplex melting transition), the “Tm 2-1” value amounted to 60.1 °C. In test [1] (triple helix melting transition, ND read as not detected), the Tm3-2 worked out at 17.1 °C. Further, in test [2], the scanometric signal result is on record as “show signal”.
